Experimental findings from patent US10039798B2, “Extracts of rosemary or hemerocallis fulva and methods of using same to promote circadian rhythm” (IN Ingredients, Inc., priority 2013, dated 2018) are described below.

Common to all, as to assay type: cell-based, Porcine
What all share (details): 1 μM, 5 μM or 20 μM, 24 hr at 37° C.

One test relates to SIRT1. Nature of the test: SIRT1 immunofluorescence in iPEC-1 cells treated with ursolic acid. The method, then:
(§1) iPEC-1 cells were grown as a monolayer in DMEM with 10% fetal bovine serum (FBS) and the necessary supplements at 37° C. in a humidified incubator with 5% CO2. iPEC1 cells were seeded on 35 mm dishes. Experiments were initiated 48 hr after plating. Cells were treated with saline or with ursolic acid at three separate dosages (1 μM; 5 μM; or 20 μM) in the medium for 24 hr at 37° C. The cells were then washed with ice-cold PBS and fixed with 4% paraformaldehyde for 10 min at room temperature followed by permeabilization with 0.3% Triton X-100 for 10 min. After being washed with PBS three times, cells were incubated for 1 hr in PBS containing 10% normal goat serum blocking solution. The cells were subjected to immunofluorescence staining with the target specific antibodies (SIRT1, CLOCK and Bmal1) overnight at 4° C. The cells were then washed with cold PBS three times for 3 min each, and incubated with Alexa-labeled secondary antibodies (Invitrogen) at room temperature for 1 h. The cells were examined by fluorescence microscopy (a Nikon TE2000-S microscope, Nikon, Tokyo, Japan).

Another test deals with Bmal1. Nature of the test: Bmal1 immunofluorescence in iPEC-1 cells treated with ursolic acid. On the procedure: as §1
The subject of another test is CLOCK. Nature of the test: CLOCK immunofluorescence in iPEC-1 cells treated with ursolic acid. The method, then: as §1

Consider `C[C@H]1[C@H](C)CC[C@]2(C(=O)O)CC[C@]3(C)C(=CC[C@@H]4[C@@]5(C)CC[C@H](O)C(C)(C)[C@@H]5CC[C@]43C)[C@H]12` [ursolic acid], for which, in the test on SIRT1, the “intensity of immunofluorescence of SIRT1 compared with controls” value was “significantly induced the intensity of immunofluorescence”. Besides, the “intensity of immunofluorescence of Bmal1 compared with controls” value in the test with Bmal1 is given as “significantly induced the intensity of immunofluorescence”. Also, the “intensity of immunofluorescence of CLOCK compared with controls” value in the test with CLOCK was “significantly induced the intensity of immunofluorescence”.
